In US6455522B1, “Cyclic sulfonamide derivatives as metalloproteinase inhibitors” (Bristol-Myers Squibb Pharma Company, priority 1998, dated 2002):

Test system: cartilage degradation
Assay: Acute Cartilage Degradation Rat Model
Type: in vivo
Settings: rats, after compound administration
Source text: A novel in vivo model of acute cartilage degradation in rats has been characterized as a method to determine the proteoglycan content in the synovial fluid after the induction of cartilage degradation.

COc1ccc2c(c1)c(CC(=O)O)c(C)n2C(=O)c1ccc(Cl)cc1 [Indomethacin]
ability to inhibit the demonstration of cartilage degradation, as measured by increased proteoglycan content in the synovial fluid: inactive
